SMILES strings stand for the structures.

Data set [1] concerns the target T1, full-length B-Catenin (Uniprot ID P35222) (Homo sapiens, UniProt P35222).
T1 construct: 65 nM full-length B-Catenin (Uniprot ID P35222)
T1 sequence (P35222 1-781): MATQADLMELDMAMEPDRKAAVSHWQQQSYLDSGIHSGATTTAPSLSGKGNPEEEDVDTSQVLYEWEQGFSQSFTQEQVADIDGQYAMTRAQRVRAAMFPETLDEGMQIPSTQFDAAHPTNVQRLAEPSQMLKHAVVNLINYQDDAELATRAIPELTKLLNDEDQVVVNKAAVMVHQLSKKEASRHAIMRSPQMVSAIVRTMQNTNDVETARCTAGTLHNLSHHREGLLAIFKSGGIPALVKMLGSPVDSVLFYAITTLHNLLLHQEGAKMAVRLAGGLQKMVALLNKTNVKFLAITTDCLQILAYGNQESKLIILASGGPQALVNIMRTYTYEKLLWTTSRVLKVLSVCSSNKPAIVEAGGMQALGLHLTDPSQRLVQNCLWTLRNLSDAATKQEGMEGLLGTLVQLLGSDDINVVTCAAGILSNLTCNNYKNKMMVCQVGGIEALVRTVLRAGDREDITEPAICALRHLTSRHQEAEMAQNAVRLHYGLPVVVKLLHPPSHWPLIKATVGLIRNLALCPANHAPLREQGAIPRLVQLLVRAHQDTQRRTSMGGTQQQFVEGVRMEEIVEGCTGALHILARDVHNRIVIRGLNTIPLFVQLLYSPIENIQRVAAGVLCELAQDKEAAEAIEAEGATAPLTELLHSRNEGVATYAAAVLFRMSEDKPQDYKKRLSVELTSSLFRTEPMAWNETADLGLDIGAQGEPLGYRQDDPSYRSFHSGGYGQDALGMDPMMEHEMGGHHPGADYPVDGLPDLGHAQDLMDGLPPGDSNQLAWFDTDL
In words: Alphascreen binding assay (beta-catenin / biotin-TCF4 10-53). The gist of the method: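 Final concentrations: 65 nM full-length human β-catenin plus 10 nM biotin-TCF4(10-53) peptide, test peptide 3-fold from 10 uM to 5 nM, preincubated 15 min at 20 °C in Tris pH 8.0/250 mM NaCl buffer. Nickel-chelate AlphaScreen donor/acceptor beads then added for 60 min in the dark; duplicate reads fitted to 1:1 binding model with Hill slope.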
On the technique in general: In Alpha technology, singlet oxygen from a donor bead excites a nearby acceptor bead.

A further data set can be described thus: CHI Log D procedure. It counts as physicochemical. The note with it: for CHI Log D: pH 7.4.

Compound `CC(=O)N1CCC[C@]12CC=CCCCC1(CCCC=CCCCCCC[C@@](C)(C(=O)N[C@@H](Cc3ccccc3)C(=O)N[C@@H](Cc3c[nH]c4ccccc34)C(=O)N[C@@H](CCC(N)=O)C(N)=O)NC(=O)[C@H](C(C)C)NC(=O)[C@H](Cc3ccccc3)NC(=O)[C@H](C)NC(=O)[C@H](C)NC(=O)[C@H](Cc3c[nH]c4ccccc34)NC(=O)[C@H](CC(=O)O)NC1=O)NC(=O)[C@H](C)NC(=O)[C@H](CC(=O)O)NC2=O` (stereo partly drawn) [I-233, Ac-PL3-Asp-Ala-B5-Asp-Trp-Ala-Ala-Phe-Val-S8-Phe-Trp-Gln-NH2] gave an EC50 in data set [1] of 5.9 µM. This compound also gave a chromatographic logD in “CHI Log D procedure” (pH 7.4, CHI Log D) of 2.82.

In data set [1], `CC(=O)N1CCC[C@]12CC=CCCCC1(CCCC=CCCCCCC[C@@](C)(C(=O)N[C@@H](Cc3ccccc3)C(=O)N[C@@H](Cc3c[nH]c4ccccc34)C(=O)N[C@@H](CCC(N)=O)C(N)=O)NC(=O)[C@H](C(C)C)NC(=O)[C@H](Cc3cccc(C(F)(F)F)c3)NC(=O)[C@H](C)NC(=O)[C@H](C)NC(=O)[C@H](CC(=O)O)NC(=O)[C@H](CC(=O)O)NC1=O)NC(=O)[C@H](C)NC(=O)[C@H](CC(=O)O)NC2=O` (stereo partly drawn) [I-236, Ac-PL3-Asp-Ala-B5-Asp-Asp-Ala-Ala-3F3MeF-Val-S8-Phe-Trp-Gln-NH2] returned an EC50 of 0.384 µM. Moreover, in “CHI Log D procedure”, the “CHI Log D” value amounted to 2.067.

In the case of `CC(=O)N1CCC[C@]12CC=CCCCC1(CCCC=CCCCCCC[C@@](C)(C(=O)N[C@@H](Cc3ccccc3)C(=O)N[C@@H](Cc3c[nH]c4ccccc34)C(=O)N[C@@H](CCC(N)=O)C(N)=O)NC(=O)[C@H](C(C)C)NC(=O)[C@H](Cc3cccc(C(F)(F)F)c3)NC(=O)[C@H](C)NC(=O)[C@H](C)NC(=O)[C@H](CC(=O)O)NC(=O)[C@H](CC(=O)O)NC1=O)NC(=O)[C@H](C)NC(=O)[C@H](CC(=O)O)NC2=O` (stereo partly drawn) [I-237, Ac-PL3-Asp-Ala-B5-Asp-Asp-Ala-Ala-3F3MeF-Val-S8-Phe-Trp-Gln-NH2], the half-maximal effective concentration (EC50) in data set [1] was 0.384 µM. Also, the “CHI Log D” value in the data set “CHI Log D procedure” turned out to be 2.067.

The compound `CC(=O)N1CCC[C@]12CC=CCCCC1(CCCC=CCCCCCC[C@@](C)(C(=O)N[C@@H](Cc3ccccc3)C(=O)N[C@@H](Cc3c[nH]c4ccccc34)C(=O)N[C@@H](CCC(N)=O)C(N)=O)NC(=O)[C@H](C(C)C)NC(=O)[C@H](Cc3ccc(C(F)(F)F)cc3)NC(=O)[C@H](C)NC(=O)[C@H](C)NC(=O)[C@H](CC(=O)O)NC(=O)[C@H](CC(=O)O)NC1=O)NC(=O)[C@H](C)NC(=O)[C@H](CC(=O)O)NC2=O` (stereo partly drawn) [I-240, Ac-PL3-Asp-Ala-B5-Asp-Asp-Ala-Ala-4F3MeF-Val-S8-Phe-Trp-Gln-NH2] showed an EC50 in data set [1] of 3.47 µM. Also, the “CHI Log D” value in the data set “CHI Log D procedure” was determined as 2.074.

In turn, `CC(=O)N1CCC[C@]12CC=CCCCC1(CCCC=CCCCCCC[C@@](C)(C(=O)N[C@@H](Cc3ccccc3)C(=O)N[C@@H](Cc3c[nH]c4ccccc34)C(=O)N[C@@H](CCC(N)=O)C(N)=O)NC(=O)[C@H](C(C)C)NC(=O)[C@H](Cc3ccc(C(F)(F)F)cc3)NC(=O)[C@H](C)NC(=O)[C@H](C)NC(=O)[C@H](CC(=O)O)NC(=O)[C@H](CC(=O)O)NC1=O)NC(=O)[C@H](C)NC(=O)[C@H](CC(=O)O)NC2=O` (stereo partly drawn) [I-241, Ac-PL3-Asp-Ala-B5-Asp-Asp-Ala-Ala-4F3MeF-Val-S8-Phe-Trp-Gln-NH2] showed an EC50 in data set [1] of 3.47 µM. For the same compound, the “CHI Log D” value in “CHI Log D procedure” stood at 2.074.

In turn, `CC(=O)N1CCC[C@]12CC=CCCCC1(CCCC=CCCCCCC[C@@](C)(C(=O)N[C@@H](Cc3ccccc3)C(=O)N[C@@H](Cc3c[nH]c4ccccc34)C(=O)N[C@@H](CCC(N)=O)C(N)=O)NC(=O)[C@H](C(C)C)NC(=O)[C@H](Cc3ccc(C(F)(F)F)cc3)NC(=O)[C@H](C)NC(=O)[C@H](C)NC(=O)[C@H](CC(=O)O)NC(=O)[C@H](CC(=O)O)NC1=O)NC(=O)[C@H](C)NC(=O)[C@H](CC(=O)O)NC2=O` (stereo partly drawn) [I-242, Ac-PL3-Asp-Ala-B5-Asp-Asp-Ala-Ala-4F3MeF-Val-S8-Phe-Trp-Gln-NH2] had an EC50 in data set [1] of 4.91 µM. The “CHI Log D” value in “CHI Log D procedure” turned out to be 2.098.

Regarding `CC(=O)N1CCC[C@]12CC=CCCCC1(CCCC=CCCCCCC[C@@](C)(C(=O)N[C@@H](Cc3ccccc3)C(=O)N[C@@H](Cc3c[nH]c4ccccc34)C(=O)N[C@@H](CCC(N)=O)C(N)=O)NC(=O)[C@H](C(C)C)NC(=O)[C@H](Cc3ccc(C(F)(F)F)cc3)NC(=O)[C@H](C)NC(=O)[C@H](C)NC(=O)[C@H](CC(=O)O)NC(=O)[C@H](CC(=O)O)NC1=O)NC(=O)[C@H](C)NC(=O)[C@H](CC(=O)O)NC2=O` (stereo partly drawn) [I-243, Ac-PL3-Asp-Ala-B5-Asp-Asp-Ala-Ala-4F3MeF-Val-S8-Phe-Trp-Gln-NH2], the EC50 in data set [1] amounted to 4.91 µM. For the same compound, the “CHI Log D” value in “CHI Log D procedure” is given as 2.098.

As for `CC(=O)N1CCC[C@]12CC=CCCCC1(CCCC=CCCCCCC[C@@](C)(C(=O)N[C@@H](Cc3ccccc3)C(=O)N[C@@H](Cc3c[nH]c4ccccc34)C(=O)N[C@@H](CCC(N)=O)C(N)=O)NC(=O)[C@H](C(C)C)NC(=O)[C@H](Cc3ccccc3)NC(=O)[C@H](C)NC(=O)[C@H](C)NC(=O)[C@H](Cc3cccc(C(F)(F)F)c3)NC(=O)[C@H](CC(=O)O)NC1=O)NC(=O)[C@H](C)NC(=O)[C@H](CC(=O)O)NC2=O` (stereo partly drawn) [I-244, Ac-PL3-Asp-Ala-B5-Asp-3F3MeF-Ala-Ala-Phe-Val-S8-Phe-Trp-Gln-NH2], in data set [1], it took 2.96 µM to reach a half-maximal effect (EC50). The “CHI Log D” value in the data set “CHI Log D procedure” was determined as 3.101.

For `CC(=O)N1CCC[C@]12CC=CCCCC1(CCCC=CCCCCCC[C@@](C)(C(=O)N[C@@H](Cc3ccccc3)C(=O)N[C@@H](Cc3c[nH]c4ccccc34)C(=O)N[C@@H](CCC(N)=O)C(N)=O)NC(=O)[C@H](C(C)C)NC(=O)[C@H](Cc3ccccc3)NC(=O)[C@H](C)NC(=O)[C@H](C)NC(=O)[C@H](Cc3ccc(C(F)(F)F)cc3)NC(=O)[C@H](CC(=O)O)NC1=O)NC(=O)[C@H](C)NC(=O)[C@H](CC(=O)O)NC2=O` (stereo partly drawn) [I-246, Ac-PL3-Asp-Ala-B5-Asp-4F3MeF-Ala-Ala-Phe-Val-S8-Phe-Trp-Gln-NH2], it took 3.97 µM to reach a half-maximal effect in data set [1] (EC50). For the same compound, the “CHI Log D” value in “CHI Log D procedure” turned out to be 3.01.

Regarding `CC(=O)N1CCC[C@]12CC=CCCCC1(CCCC=CCCCCCC[C@@](C)(C(=O)N[C@@H](Cc3cccc(C(F)(F)F)c3)C(=O)N[C@@H](Cc3c[nH]c4ccccc34)C(=O)N[C@@H](CCC(N)=O)C(N)=O)NC(=O)[C@H](C(C)C)NC(=O)[C@H](Cc3ccccc3)NC(=O)[C@H](C)NC(=O)[C@H](C)NC(=O)[C@H](CC(=O)O)NC(=O)[C@H](CC(=O)O)NC1=O)NC(=O)[C@H](C)NC(=O)[C@H](CC(=O)O)NC2=O` (stereo partly drawn) [I-248, Ac-PL3-Asp-Ala-B5-Asp-Asp-Ala-Ala-Phe-Val-S8-3F3MeF-Trp-Gln-NH2], the midpoint of the response in data set [1], the EC50, lay at 2.83 µM. For the same compound, the “CHI Log D” value in “CHI Log D procedure” turned out to be 2.263.

Compound `CC(=O)N1CCC[C@]12CC=CCCCC1(CCCC=CCCCCCC[C@@](C)(C(=O)N[C@@H](Cc3cccc(C(F)(F)F)c3)C(=O)N[C@@H](Cc3c[nH]c4ccccc34)C(=O)N[C@@H](CCC(N)=O)C(N)=O)NC(=O)[C@H](C(C)C)NC(=O)[C@H](Cc3ccccc3)NC(=O)[C@H](C)NC(=O)[C@H](C)NC(=O)[C@H](CC(=O)O)NC(=O)[C@H](CC(=O)O)NC1=O)NC(=O)[C@H](C)NC(=O)[C@H](CC(=O)O)NC2=O` (stereo partly drawn) [I-249, Ac-PL3-Asp-Ala-B5-Asp-Asp-Ala-Ala-Phe-Val-S8-3F3MeF-Trp-Gln-NH2] yielded an EC50 in data set [1] of 2.83 µM. In “CHI Log D procedure”, the “CHI Log D” value turned out to be 2.263.

One may read the EC50 as the concentration at which the effect is half-maximal. A lower EC50 goes with greater potency. For orientation: chromatographic logD means a lipophilicity value derived from retention on a column. Read a high chromatographic logD as a more lipophilic compound.
